According to article PMC5837613 (Toxicological Sciences, 2017):
pIC50: −log10 of the molar value. One block for each compound: values may come before it.

What was measured:
[1] = system: hiPSC CM (iCell Cardiomyocytes); assay: Cellular impedance; assay type: cell-based, human; details: 3 µM, 2 h exposure; for change in beat amplitude / change in beat rate: significant = >3*SD of vehicle
[2] = target: RPS6KB1 (Homo sapiens, UniProt P23443); assay: KinomeScan competition binding assay, RPS6KB1
[3] = target: FAK (Homo sapiens, UniProt Q05397); assay: KinomeScan competition binding assay, FAK
Chain of FAK (Q05397 whole entry): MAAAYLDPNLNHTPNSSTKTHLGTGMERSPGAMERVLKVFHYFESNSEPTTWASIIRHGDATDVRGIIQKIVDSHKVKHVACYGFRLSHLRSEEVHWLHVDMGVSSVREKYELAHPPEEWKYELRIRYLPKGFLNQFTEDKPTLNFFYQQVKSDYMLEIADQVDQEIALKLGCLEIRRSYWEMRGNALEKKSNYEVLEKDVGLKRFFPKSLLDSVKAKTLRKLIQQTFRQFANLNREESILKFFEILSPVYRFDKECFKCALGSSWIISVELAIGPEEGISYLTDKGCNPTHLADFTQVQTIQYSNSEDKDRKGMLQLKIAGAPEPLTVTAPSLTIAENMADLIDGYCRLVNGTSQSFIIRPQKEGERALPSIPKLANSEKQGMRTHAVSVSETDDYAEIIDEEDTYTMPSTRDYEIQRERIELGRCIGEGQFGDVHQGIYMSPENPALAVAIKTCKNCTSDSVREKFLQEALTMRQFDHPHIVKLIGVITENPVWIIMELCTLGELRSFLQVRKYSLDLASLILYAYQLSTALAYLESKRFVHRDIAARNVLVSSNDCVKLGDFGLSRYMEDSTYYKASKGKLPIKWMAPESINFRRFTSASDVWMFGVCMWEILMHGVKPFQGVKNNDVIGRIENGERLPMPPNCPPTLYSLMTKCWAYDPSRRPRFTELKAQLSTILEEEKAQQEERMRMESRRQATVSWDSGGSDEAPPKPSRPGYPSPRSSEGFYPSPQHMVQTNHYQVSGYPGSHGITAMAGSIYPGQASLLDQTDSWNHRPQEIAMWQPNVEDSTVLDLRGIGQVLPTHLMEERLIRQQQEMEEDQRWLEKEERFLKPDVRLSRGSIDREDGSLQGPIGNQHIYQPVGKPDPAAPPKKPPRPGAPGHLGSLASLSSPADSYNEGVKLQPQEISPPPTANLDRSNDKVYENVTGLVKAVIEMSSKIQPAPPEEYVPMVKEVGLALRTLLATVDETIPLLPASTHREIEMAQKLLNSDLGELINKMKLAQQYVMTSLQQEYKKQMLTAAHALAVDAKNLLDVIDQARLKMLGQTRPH

[4] = human plasma, Cmax at steady state; ref 1-28 of Supplementary Text; cited from earlier work
[5] = target: STK35 (Homo sapiens, UniProt Q8TDR2); assay: KinomeScan competition binding assay, STK35
Chain of STK35 (Q8TDR2 whole entry): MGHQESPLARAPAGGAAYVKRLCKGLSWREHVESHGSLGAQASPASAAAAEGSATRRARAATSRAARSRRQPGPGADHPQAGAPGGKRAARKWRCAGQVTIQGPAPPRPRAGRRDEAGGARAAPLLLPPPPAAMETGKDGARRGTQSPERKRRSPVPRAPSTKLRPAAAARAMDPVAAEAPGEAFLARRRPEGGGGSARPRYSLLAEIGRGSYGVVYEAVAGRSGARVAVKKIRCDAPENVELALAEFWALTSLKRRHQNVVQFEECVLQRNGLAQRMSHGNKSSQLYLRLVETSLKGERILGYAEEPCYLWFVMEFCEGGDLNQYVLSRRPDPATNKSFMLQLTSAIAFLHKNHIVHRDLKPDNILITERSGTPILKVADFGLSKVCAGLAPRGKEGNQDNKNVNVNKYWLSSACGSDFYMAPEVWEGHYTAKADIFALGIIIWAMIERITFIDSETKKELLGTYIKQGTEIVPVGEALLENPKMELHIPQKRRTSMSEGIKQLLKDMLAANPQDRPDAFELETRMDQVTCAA

[6] = system: hiPSC CM (iCell Cardiomyocytes); assay: Cellular ATP levels; assay type: cell-based, human; details: 3 µM, 24 h after compound addition

Chain of RPS6KB1 (P23443 whole entry): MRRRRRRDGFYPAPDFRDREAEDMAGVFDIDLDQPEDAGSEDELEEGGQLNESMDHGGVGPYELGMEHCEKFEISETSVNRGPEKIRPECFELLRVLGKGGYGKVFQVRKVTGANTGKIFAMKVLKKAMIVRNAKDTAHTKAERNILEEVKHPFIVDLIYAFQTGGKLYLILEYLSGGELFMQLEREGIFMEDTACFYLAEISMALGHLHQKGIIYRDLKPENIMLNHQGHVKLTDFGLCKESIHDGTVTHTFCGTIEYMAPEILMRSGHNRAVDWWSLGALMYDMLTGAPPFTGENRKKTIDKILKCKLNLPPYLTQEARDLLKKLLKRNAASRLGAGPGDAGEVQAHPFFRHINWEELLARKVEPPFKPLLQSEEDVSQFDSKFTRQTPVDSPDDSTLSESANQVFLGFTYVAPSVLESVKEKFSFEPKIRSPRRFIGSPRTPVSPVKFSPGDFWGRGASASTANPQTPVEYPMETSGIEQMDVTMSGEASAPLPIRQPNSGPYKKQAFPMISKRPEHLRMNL

Compound: Cc1cc2c(F)c(Oc3ncnn4cc(OC[C@@H](C)O)c(C)c34)ccc2[nH]1 [BMS-540215]
effect on CM beating (beat rate or amplitude) [1]: induced CM beating effects

Compound: COc1cc2nccc(Oc3ccc(NC(=O)C4(C(=O)Nc5ccc(F)cc5)CC4)cc3)c2cc1OC [Cabozantinib]
pIC50 [2]: 4.88
pIC50 [3]: 5.55
Cmaxss [4]: 2.8 µM
pIC50 [5]: 5.24

Compound: COc1cc2nccc(Oc3ccc(NC(=O)Nc4cc(C)on4)c(Cl)c3)c2cc1OC [Tivozanib]
pIC50 [2]: < 5.49
pIC50 [3]: 5.51
Cmaxss [4]: 0.2 µM
pIC50 [5]: < 5.49

Compound: CN[C@@H]1C[C@H]2O[C@@](C)([C@@H]1OC)n1c3ccccc3c3c4c(c5c6ccccc6n2c5c31)C(=O)NC4 [staurosporine]
cytotoxicity (decreased cellular ATP levels and decreased cell index) [6]: induce cell death

Compound: C[C@]12O[C@H](C[C@]1(O)CO)n1c3ccccc3c3c4c(c5c6ccccc6n2c5c31)CNC4=O [CEP-701]
change in beat amplitude [1]: decreased amplitude
change in beat rate [1]: increased beat rate

Compound: CO[C@@H]1[C@H](N(C)C(=O)c2ccccc2)C[C@H]2O[C@]1(C)n1c3ccccc3c3c4c(c5c6ccccc6n2c5c31)C(=O)NC4 [PKC-412]
change in beat amplitude [1]: decreased amplitude
change in beat rate [1]: increased beat rate

Compound: Cc1cnc(Nc2ccc(OCCN3CCCC3)cc2)nc1Nc1cccc(S(=O)(=O)NC(C)(C)C)c1 [TG-101348]
effect on CM beating (beat rate or amplitude) [1]: no effect on CM beating

Compound: CNC(=O)c1cc(COc2nnc(Nc3ccc(Cl)cc3)c3ccoc23)ccn1 [Telatinib]
pIC50 [2]: < 4.49
pIC50 [3]: < 4.49
Cmaxss [4]: 2.0 to 3.6 µM
pIC50 [5]: < 4.49

Continued, in another order:

effect on CM beating (beat rate or amplitude) [1]: no effect on CM beating
Compound: Cc1[nH]c(/C=C2\C(=O)Nc3ccc(F)cc32)c(C)c1C(=O)NC[C@H](O)CN1CCOCC1 [SU14813]

effect on CM beating (beat rate or amplitude) [1]: induced CM beating effects
change in beat amplitude [1]: independent of a change in amplitude
change in beat rate [1]: increased beat rate
Compound: OCCn1cc(-c2ccc3c(c2)CC/C3=N\O)c(-c2ccncc2)n1 [GDC-0879]

pIC50 [5]: < 5.00
Compound: Cc1cc(Nc2cc(N3CCN(C)CC3)nc(/C=C/c3ccccc3)n2)n[nH]1 [ENMD-2076]
Cmaxss [4]: 0.6 to 1.5 µM

change in beat amplitude [1]: increased amplitude
change in beat rate [1]: independent of a change in beat rate
Compound: CCn1c(-c2nonc2N)nc2c(C#CC(C)(C)O)ncc(OC[C@H]3CCCNC3)c21 [GSK-690693]

change in beat amplitude [1]: increased amplitude
change in beat rate [1]: independent of a change in beat rate
Compound: Cc1[nH]nc2ccc(-c3cncc(OC[C@@H](N)Cc4ccccc4)c3)cc12 [A-674563]

pIC50 [2]: 5.52
pIC50 [3]: 7.00
pIC50 [5]: < 5.49
Compound: NC(=O)Nc1cc(-c2cccc(F)c2)sc1C(=O)N[C@H]1CCCNC1 [AZD7762]
